From PubChem BioAssay AID1033 (Sanford-Burnham Center for Chemical Genomics, 2008)
Activity calls are given as the source filed them. No rule for the calls is given here.

These compounds were tested against Chaperone protein DnaK (Escherichia coli (strain K12)) (UniProt P0A6Y8) (assay: E. coli DnaK SBD ligand binding – biophysical, NMR, chaperone (AID 1033)). Details: Purified DnaK SBD.
Chaperone protein DnaK (Escherichia coli (strain K12)), sequence (P0A6Y8 whole entry, looked up): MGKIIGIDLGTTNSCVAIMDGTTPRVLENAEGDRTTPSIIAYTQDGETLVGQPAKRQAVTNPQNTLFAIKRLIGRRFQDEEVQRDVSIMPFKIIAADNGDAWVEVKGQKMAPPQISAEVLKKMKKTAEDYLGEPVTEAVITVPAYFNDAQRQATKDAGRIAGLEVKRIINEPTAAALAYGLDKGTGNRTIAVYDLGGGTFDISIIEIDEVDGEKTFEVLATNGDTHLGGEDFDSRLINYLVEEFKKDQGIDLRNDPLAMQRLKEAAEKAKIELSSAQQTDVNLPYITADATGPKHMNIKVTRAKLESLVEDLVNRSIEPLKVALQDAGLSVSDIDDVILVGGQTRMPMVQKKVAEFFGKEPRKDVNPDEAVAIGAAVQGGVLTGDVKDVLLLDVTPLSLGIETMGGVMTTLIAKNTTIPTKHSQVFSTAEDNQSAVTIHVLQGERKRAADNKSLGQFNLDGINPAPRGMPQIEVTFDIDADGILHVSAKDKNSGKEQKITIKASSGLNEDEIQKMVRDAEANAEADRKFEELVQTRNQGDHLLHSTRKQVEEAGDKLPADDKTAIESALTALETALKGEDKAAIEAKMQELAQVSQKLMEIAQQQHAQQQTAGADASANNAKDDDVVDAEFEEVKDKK

Row | Compound | Kd
1 | CC(C)/C(O)=C1/C(=O)O[C@@H](c2ccoc2)[C@]2(C)C(O)[C@@H](O)[C@@]34OC5(C)OC67CC(C)(C(O)[C@]6(O)[C@@H](O)[C@]3(O5)C12)[C@H](CC(=O)O)[C@]74C (stereo not given in full) | > 4 mM (inactive)
2 | O=C(Nc1ccncc1)c1cncc(Br)c1 | > 4 mM (inactive)
3 | COC(=O)c1c[nH]c2ccccc12 | > 4 mM (inactive)
4 | CN(C)N1C(=O)c2ccccc2C1=O | > 4 mM (inactive)
5 | Nc1c(S(=O)(=O)c2ccccc2)csc1C(=O)O | > 4 mM (inactive)
6 | OCc1nc2ccccc2s1 | > 4 mM (inactive)
7 | O=c1ccn(Cc2ccccc2)c(=O)n1Cc1ccccc1 | > 4 mM (inactive)
8 | O=C(O)c1ccccc1C(=O)NCC1CCCO1 (stereo not given) | > 4 mM (inactive)
9 | c1ccc(-c2csc3ncn4nnnc4c23)cc1 | > 4 mM (inactive)
10 | CN1CCN(Cc2cccnc2)CC1 | > 4 mM (inactive)
11 | c1ccc2[nH]c(-c3cscn3)nc2c1 | > 4 mM (inactive)
12 | O=C1Cn2c(nc3ccccc32)N1c1ccccc1F | > 4 mM (inactive)
13 | COC(=O)C[C@@H]1C2(C)C(=O)[C@@H](CC3=C4CC(O)O[C@@H](c5ccoc5)[C@]4(C)CCC32)[C@H](O)C1(C)C (stereo not given in full) | > 4 mM (inactive)
14 | CC12OC(=O)CC3C(C)(C)[C@H](O)C=C[C@]3(C)C1CC[C@]1(C)C2=CC(=O)O[C@H]1c1ccoc1 (stereo not given in full) | > 4 mM (inactive)
15 | COc1ccc2c3c([nH]c2c1)C(C)=NCC3 | > 4 mM (inactive)
16 | OCC1CCN(c2ncccn2)CC1 | > 4 mM (inactive)
17 | CCOc1nc(C)ccc1-c1noc(-c2ccncc2)n1 | > 4 mM (inactive)
18 | CC1=NN(c2ccc(N)cc2)C(=O)C1 | > 4 mM (inactive)
19 | C[C@@H]1OC(O[C@H]2[C@H](OC(=O)[C@]34CCC(C)(C)CC3C3=CCC5[C@@]6(C)CC[C@H](OC7O[C@@H](C)[C@H](O[C@@H]8OC[C@@H](O)[C@H](O)[C@H]8O)[C@@H](O)[C@H]7O)C(C)(C)C6CC[C@@]5(C)[C@]3(C)CC4O)OC[C@H](O)[C@H]2O)[C@H](O)[C@H](O)[C@H]1O[C@@H]1O[C@H](CO)[C@@H](O)[C@H](O)[C@H]1O (stereo not given in full) | > 4 mM (inactive)
20 | C/C=C(/C)C(=O)O[C@H]1CC[C@@]2(C)[C@@H]3CC[C@H]4[C@]5(O)C[C@H](O)[C@@]6(O)[C@@H](CN7C[C@@H](C)CC[C@H]7[C@@]6(C)O)[C@]5(O)C[C@@]42OC13O | > 4 mM (inactive)
21 | Cc1cc(C)c(C#N)c(N2CCCC2)n1 | > 4 mM (inactive)
22 | COc1cc(OC)cc(-c2nc(N)n[nH]2)c1 | > 4 mM (inactive)
23 | C[n+]1cc2c3c(ccc2c2ccc4cc5c(cc4c21)OCO5)OCO3 | > 4 mM (inactive)
24 | c1ccc(Cc2nnc3sc(-c4cccnc4)nn23)cc1 | > 4 mM (inactive)
25 | CC(=O)OCC[C@H](C)CCC=C(C)C | > 4 mM (inactive)
26 | c1csc(-c2nn[nH]n2)c1 | > 4 mM (inactive)
27 | Nc1nsc(-c2ccccc2)n1 | > 4 mM (inactive)
28 | Nc1cccc2cccnc12 | > 4 mM (inactive)

Row | Compound | Kd
29 | C[C@@H]1CC[C@H]2[C@@H](C)C(=O)O[C@@H]3OC4(C)CC[C@@H]1[C@]32OO4 | > 4 mM (inactive)
30 | COc1cc2c(c(OC)c1OC)-c1ccc(O)c(=O)cc1[C@@H](NC(C)=O)CC2 | > 4 mM (inactive)
31 | OC[C@H]1O[C@@](CO)(O[C@@H]2O[C@H](CO)[C@@H](O)[C@H](O)[C@H]2O)[C@@H](O[C@@H]2O[C@H](CO)[C@@H](O)[C@H](O)[C@H]2O)[C@@H]1O | > 4 mM (inactive)
32 | CC(C)=CC(=O)Nc1ccccc1Br | > 4 mM (inactive)
33 | Cc1cc(NC(=O)CSc2nncn2C)no1 | > 4 mM (inactive)
34 | OCc1ncoc1-c1ccccc1 | > 4 mM (inactive)
35 | Nc1nc(-c2nc3ccccc3[nH]2)cs1 | > 4 mM (inactive)
36 | COC(=O)CSc1n[nH]c(N)n1 | > 4 mM (inactive)
37 | CC1(C)CC2(C)N(N)C(=O)CN2C(=S)N1 (stereo not given) | > 4 mM (inactive)
38 | CCc1c(C(=O)N2CCOCC2)csc1C | > 4 mM (inactive)
39 | O=S(=O)(Cc1ccccc1)N1CCCCCC1 | > 4 mM (inactive)
40 | CC(C(N)=O)N1C(=O)c2ccccc2C1=O (stereo not given) | > 4 mM (inactive)
41 | C[C@H]1CCCC(=O)CCC/C=C/c2cc(O)cc(O)c2C(=O)O1 | > 4 mM (inactive)
42 | O=C(c1ccc(Cl)c(F)c1F)N1CCCC1 | > 4 mM (inactive)
43 | CN1CCC(N(C)C2CCN(C)CC2)CC1 | > 4 mM (inactive)
44 | Nc1ccc(O)cn1 | > 4 mM (inactive)
45 | COC(=O)C[C@H]1C(C)(C)C(=O)[C@@H]2CC3C4=CC(=O)O[C@@H](c5ccoc5)[C@]4(C)CCC3C1(C)C2=O (stereo not given in full) | > 4 mM (inactive)
46 | Cc1nnsc1C(=O)Nc1cccc(S(N)(=O)=O)c1 | > 4 mM (inactive)
47 | O=C(c1cc(-c2ccccc2)on1)N1CCCC1 | > 4 mM (inactive)
48 | O=C1C2C3CCC(O3)C2C(=O)N1c1ccccc1 (stereo not given) | > 4 mM (inactive)
49 | COc1cccc(-c2nc(-c3ccccn3)no2)c1OC | > 4 mM (inactive)
50 | COc1cc2c(cc1OC)C(=O)OC2 | > 4 mM (inactive)
51 | O=C(NC(=S)NCCO)c1ccccc1 | > 4 mM (inactive)
52 | O=c1ccc2ccc(O)cc2o1 | > 4 mM (inactive)
53 | Cc1nnsc1C(=O)Nc1ccc(C(N)=O)cc1 | > 4 mM (inactive)
54 | CCC1(CC)C(=O)NC(=O)N=C1N | > 4 mM (inactive)
55 | Cc1[nH]c2ccccc2c1Cc1n[nH]c(=S)n1C | > 4 mM (inactive)
